From US20170184604A1, “DD1ALPHA RECEPTOR AND USES THEREOF IN IMMUNE DISORDERS” (THE GENERAL HOSPITAL CORPORATION, priority 2014, published 2017)

Experiments:
TIM-3 = biological target: T1, TIM-3 (Homo sapiens, UniProt Q8TDQ0); test: Ig fusion protein staining of 293T transfectants (flow cytometry); format: binding; conditions: cell surface staining
T1 construct: full length human PD-1 and Tim3 cDNA (Sino biological) were cloned into pcDNA3.1(−) tagged with HA at C-terminus; host or cells: HEK293T
Method: (§1) The bound Ig fusion proteins were detected with anti-Ig-APC. Empty vector (pcDNA3.1)-transfected cells stained with Ig proteins are shown as a negative control (gray filled) and other staining is shown as black open. […] Purified CD4+ T cells from Wt and DD1α−/− mice were assayed for binding to Ig fused DD1α or PD1 proteins. […] The bound Ig fusion proteins were detected by anti-Ig-APC. Binding amounts were determined by percentage of APC positive cells compared to control Ig protein-bound cells. […] The bead bound proteins were eluted and determined by western blot analysis using anti-HA antibody (asterisks). […] The bead bound proteins were eluted and detected by western blot analysis with anti-DD1α or anti-PD1 antibody (asterisk). […] MCF7 cells were treated by Nutlin-3 (10 μM) for 1 to 3 days. MCF7 cells were transfected with control siRNA or p53 siRNA for 24 hours and treated with CPT (500 nM) or DMSO (control) for 1 and 2 days. The levels of indicated proteins were analyzed by western blot analysis. Total RNAs from control siRNA or p53 siRNA transfected MCF7 cells were assessed for mRNA levels of PD1 or PD-L1 by real-time quantitative PCR.

PD-1 = biological target: T2, PD-1 (Homo sapiens, UniProt Q15116); test: as above; format: binding; conditions: cell surface staining
T2 construct: full length human PD-1 and Tim3 cDNA (Sino biological) were cloned into pcDNA3.1(−) tagged with HA at C-terminus; host or cells: HEK293T
T2 sequence (Q15116 25-288): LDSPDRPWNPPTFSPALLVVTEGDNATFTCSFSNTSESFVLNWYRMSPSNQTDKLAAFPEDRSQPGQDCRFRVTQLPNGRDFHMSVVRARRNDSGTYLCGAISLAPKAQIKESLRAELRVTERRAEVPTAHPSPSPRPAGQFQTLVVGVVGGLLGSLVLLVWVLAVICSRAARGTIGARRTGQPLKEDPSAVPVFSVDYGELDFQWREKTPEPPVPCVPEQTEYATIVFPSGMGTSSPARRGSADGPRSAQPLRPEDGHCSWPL
Method: as §1

human CD8+ T cells = test: Human T cell activation assay (CFSE proliferation); format: cell-based; conditions: various concentrations with 3 μg/ml anti-CD3
Method: (FIG. 5A) DD1α inhibits the activation of human CD4+ T cells and CD8+ T cells. Enriched human CD4+ T cells and CD8+ T cells were stained with CFSE (1 μM) and stimulated with plate-bound anti-CD3 antibody (3 μg/ml) together with 2, 5, or 10 μg/ml of DD1α-Ig proteins or control Ig proteins. The proliferations of CD4+ T or CD8+ T cells were determined by the percentages of CFSE-labeled CD4+ T or CD8+ T cells at the 72-hour culture. The levels of cytokines IFN-γ and TNF-α in culture supernatant were analyzed by ELISA at the 48-hour culture. (FIG. 5B) DD1α-mediated inhibition of T cell activation is modulated by α-PD1 antibodies. […] The proliferation and cytokine production of CD4+ T cells were determined as FIG. 5A. […] The proliferations of CD4+ T cells were determined by percentage of CFSE-diluted CD4+ cells on day 3. The levels of cytokines IFN-γ and IL-2 in culture supernatant were analyzed by ELISA on day 2. (FIG. 5D) DD1α mediates Foxp3+ iTreg cell development. […]
The amount of Ig protein was kept constant at 10 μg/ml by the addition of control Ig protein. […] On day 3, cells were stained with anti-CD4-APC (OKT4, eBioscience for human CD4+ T cells; RM4-5, eBioscience for mouse CD4+ T cells) or anti-CD8-APC (SK1, eBioscience for human CD8+ T cells; 53-6.7, eBioscience for mouse CD8+ T cells) and then analyzed for CFSE dilution by flow cytometry.

human CD4+ T cells = test: Human T cell activation assay (CFSE proliferation, cytokine ELISA); format: cell-based
Method: Enriched human CD4+ T cells and CD8+ T cells were stained with CFSE (1 μM) and stimulated with plate-bound anti-CD3 antibody (3 μg/ml) together with 2, 5, or 10 μg/ml of DD1α-Ig proteins or control Ig proteins. The proliferations of CD4+ T or CD8+ T cells were determined by the percentages of CFSE-labeled CD4+ T or CD8+ T cells at the 72-hour culture. The levels of cytokines IFN-γ and TNF-α in culture supernatant were analyzed by ELISA at the 48-hour culture. […] The proliferation and cytokine production of CD4+ T cells were determined as FIG. 5A. […] The proliferations of CD4+ T cells were determined by percentage of CFSE-diluted CD4+ cells on day 3. The levels of cytokines IFN-γ and IL-2 in culture supernatant were analyzed by ELISA on day 2. […] Data are shown as mean±SD and representative of three experiments.
The proliferations of CD4^+ T cells were determined by percentage of CFSE-diluted CD4^+ cells on day 3.
The cytokine production of CD4^+ T cells were then determined IFN-γ and TNF-alpha levels in culture supernatants on day 2 were analyzed by ELISA.
The amount of Ig protein was kept constant at 10 μg/ml by the addition of control Ig protein. Human CD4+ or CD8+ T cells were purified from freshly isolated PBMCs using CD4+ T Cell Isolation Kit II, human or CD8+ T Cell Isolation Kit, human (Miltenyi Biotec). Mouse CD4+ and CD8+ T cells were purified from splenocytes freshly isolated from mice using CD4+ T Cell Isolation Kit II, mouse or CD8a+ T Cell Isolation Kit II, mouse (Miltenyi Biotec). […] The T cells were labeled with 1 μM CFSE, quenched by cold FBS and incubated in the anti-CD3 & Ig proteins-coated plates. On day 2 after stimulation, supernatant was collected and cytokines were assayed by ELISA. On day 3, cells were stained with anti-CD4-APC (OKT4, eBioscience for human CD4+ T cells; RM4-5, eBioscience for mouse CD4+ T cells) or anti-CD8-APC (SK1, eBioscience for human CD8+ T cells; 53-6.7, eBioscience for mouse CD8+ T cells) and then analyzed for CFSE dilution by flow cytometry.

DD1α = test: Ig fusion protein staining of 293T transfectants (flow cytometry); format: binding, human; conditions: cell surface staining
DD1α, sequence (Q9H7M9 33-311): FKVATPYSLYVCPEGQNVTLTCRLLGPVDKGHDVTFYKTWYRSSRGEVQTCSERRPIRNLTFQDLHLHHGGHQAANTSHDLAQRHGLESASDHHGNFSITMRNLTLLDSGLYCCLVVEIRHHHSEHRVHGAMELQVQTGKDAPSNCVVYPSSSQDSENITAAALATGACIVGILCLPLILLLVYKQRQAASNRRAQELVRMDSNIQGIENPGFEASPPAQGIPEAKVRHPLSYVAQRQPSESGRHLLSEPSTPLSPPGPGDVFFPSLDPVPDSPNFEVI
Method: as §1

binding to TIM-3 transfectants (TIM-3): not to PD-L1 or TIM-3 transfectants
binding to PD-1-transfected 293T cells (PD-1): specifically bound
Substance: DD1α-Ig: the extracellular region of DD1α fused with the immunoglobulin G Fc segment
CD8+ T cell proliferation stimulated by anti-CD3 (human CD8+ T cells): strongly inhibited
T cell activation-induced production of IFN-γ and TNF-α (human CD4+ T cells; human CD4+ and CD8+ T cells, ELISA of culture supernatant): clearly blocked
proliferation of human CD4+ T cells (human CD4+ T cells; plate-bound anti-CD3 3 μg/ml, CFSE, Ig control 92.2%): 47.1%
inhibition of anti-CD3-stimulated human CD4+ T cell proliferation (human CD4+ T cells; plate-bound anti-CD3 3 μg/ml, CFSE, relative to Ig control (92.2% proliferation)): ~45%
CD4+ T cell proliferation stimulated by anti-CD3 (human CD4+ T cells; various concentrations with 3 μg/ml anti-CD3): strongly inhibited
binding to DD1α-transfected 293T cells (DD1α): specifically bound
